Converted amounts (≈) assume the structure as drawn.
Experiments:
[1] = system: K. pneumoniae ATCC BAA-2146; experiment: MIC, agar plate dilution method, K. pneumoniae ATCC BAA-2146; assay type: cell-based, Klebsiella pneumoniae; settings: K. pneumoniae ATCC BAA-2146, NDM-producing strain
How it was run: (§1)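 Agar plate dilution per Japan Society of Chemotherapy standard; read-out = MIC in μg/mL.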

[2] = system: S. aureus MF490; experiment: MIC, agar plate dilution method, S. aureus MF490; assay type: cell-based, Staphylococcus aureus; settings: S. aureus MF490, MRSA
How it was run: as §1

[3] = system: A. baumannii ATCC BAA-1710; experiment: MIC, agar plate dilution method, A. baumannii ATCC BAA-1710; assay type: cell-based, Acinetobacter baumannii; settings: A. baumannii ATCC BAA-1710, MDRA
How it was run: as §1

[4] = system: K. pneumoniae ATCC BAA-1705; experiment: MIC, agar plate dilution method, K. pneumoniae ATCC BAA-1705; assay type: cell-based, Klebsiella pneumoniae; settings: K. pneumoniae ATCC BAA-1705, KPC-producing strain
How it was run: as §1

[5] = system: E. coli JM109/pMW218; experiment: MIC, agar plate dilution method, E. coli JM109/pMW218; assay type: cell-based, Escherichia coli; settings: E. coli JM109/pMW218, Sensitive bacterium
How it was run: as §1

[6] = system: S. marcescens TH-0447; experiment: MIC, agar plate dilution method, S. marcescens TH-0447; assay type: cell-based, Serratia marcescens; settings: S. marcescens TH-0447, AMK-resistant
How it was run: as §1

[7] = system: P. aeruginosa PAO1/GN315; experiment: MIC, agar plate dilution method, P. aeruginosa PAO1/GN315; assay type: cell-based, Pseudomonas aeruginosa; settings: P. aeruginosa PAO1/GN315, AMK-resistant
How it was run: as §1

[8] = system: S. marcescens GN6944; experiment: MIC, agar plate dilution method, S. marcescens GN6944; assay type: cell-based, Serratia marcescens; settings: S. marcescens GN6944, GM-resistant
How it was run: as §1

[9] = system: P. aeruginosa PAO1; experiment: MIC, agar plate dilution method, P. aeruginosa PAO1; assay type: cell-based, Pseudomonas aeruginosa; settings: P. aeruginosa PAO1, Sensitive bacterium
How it was run: as §1

[10] = system: S. aureus RN4220; experiment: MIC, agar plate dilution method, S. aureus RN4220; assay type: cell-based, Staphylococcus aureus; settings: S. aureus RN4220, Sensitive bacterium
How it was run: as §1

[11] = system: P. aeruginosa MSC17707; experiment: MIC, agar plate dilution method, P. aeruginosa MSC17707; assay type: cell-based, Pseudomonas aeruginosa; settings: P. aeruginosa MSC17707, AMK-resistant
How it was run: as §1

[12] = system: P. aeruginosa MSC01035; experiment: MIC, agar plate dilution method, P. aeruginosa MSC01035; assay type: cell-based, Pseudomonas aeruginosa; settings: P. aeruginosa MSC01035, ABK-resistant
How it was run: as §1

[13] = system: S. aureus RN4220/pMS520; experiment: MIC, agar plate dilution method, S. aureus RN4220/pMS520; assay type: cell-based, Staphylococcus aureus; settings: S. aureus RN4220/pMS520, MRSA
How it was run: as §1

[14] = system: E. faecium ATCC19434; experiment: MIC, agar plate dilution method, E. faecium ATCC19434; assay type: cell-based, Enterococcus faecium; settings: E. faecium ATCC19434
How it was run: as §1

Row | SMILES | minimal inhibitory concentration (MIC) [1] | minimal inhibitory concentration (MIC) [2] | minimal inhibitory concentration (MIC) [3] | minimal inhibitory concentration (MIC) [4] | minimal inhibitory concentration (MIC) [5] | minimal inhibitory concentration (MIC) [6] | minimal inhibitory concentration (MIC) [7] | minimal inhibitory concentration (MIC) [8] | minimal inhibitory concentration (MIC) [9] | minimal inhibitory concentration (MIC) [10] | minimal inhibitory concentration (MIC) [11] | minimal inhibitory concentration (MIC) [12] | minimal inhibitory concentration (MIC) [13] | minimal inhibitory concentration (MIC) [14]
1 | CN[C@@H]1[C@@H](O[C@H]2O[C@H](CO)[C@@H](N)C[C@H]2O)O[C@H]2C[C@@H](N)[C@@H](O[C@H]3C[C@@H](O)[C@H](N)C[C@@H]3N)O[C@@H]2[C@@H]1O [Compound M7, 5,3″-dideoxyapramycin] | 1 µg/mL (≈ 1.97 µM) | 4 µg/mL (≈ 7.88 µM) | 8 µg/mL (≈ 15.8 µM) | 1 µg/mL (≈ 1.97 µM) | 0.5 µg/mL (≈ 0.985 µM) | 8 µg/mL (≈ 15.8 µM) | 4 µg/mL (≈ 7.88 µM) | 4 µg/mL (≈ 7.88 µM) | 4 µg/mL (≈ 7.88 µM) | 2 µg/mL (≈ 3.94 µM) | 4 µg/mL (≈ 7.88 µM) | 4 µg/mL (≈ 7.88 µM) | 1 µg/mL (≈ 1.97 µM) | 16 µg/mL (≈ 31.5 µM)
2 | CNC1C(OC2OC(CO)C(N)CC2O)OC2CC(N)C(OC3C(N)CC(N)C(O)C3O)OC2C1O (stereo not drawn) [Compound M9, 3″-deoxy-5-epiapramycin] | 1 µg/mL (≈ 1.91 µM) | 4 µg/mL (≈ 7.64 µM) | 4 µg/mL (≈ 7.64 µM) | 1 µg/mL (≈ 1.91 µM) | 1 µg/mL (≈ 1.91 µM) | 4 µg/mL (≈ 7.64 µM) | 4 µg/mL (≈ 7.64 µM) | 4 µg/mL (≈ 7.64 µM) | 2 µg/mL (≈ 3.82 µM) | 1 µg/mL (≈ 1.91 µM) | 4 µg/mL (≈ 7.64 µM) | 4 µg/mL (≈ 7.64 µM) | 2 µg/mL (≈ 3.82 µM) | 8 µg/mL (≈ 15.3 µM)
3 | CNC1C(OC2OC(CO)C(N)CC2O)OC2CC(N)C(OC3C(N)CC(N)C(O)C3F)OC2C1O (stereo not drawn) [Compound M10, 5,3″-dideoxy-5-epi-5-fluoroapramycin] | 1 µg/mL (≈ 1.9 µM) | 8 µg/mL (≈ 15.2 µM) | 8 µg/mL (≈ 15.2 µM) | 1 µg/mL (≈ 1.9 µM) | 0.5 µg/mL (≈ 0.951 µM) | 8 µg/mL (≈ 15.2 µM) | 4 µg/mL (≈ 7.61 µM) | 4 µg/mL (≈ 7.61 µM) | 4 µg/mL (≈ 7.61 µM) | 2 µg/mL (≈ 3.81 µM) | 4 µg/mL (≈ 7.61 µM) | 4 µg/mL (≈ 7.61 µM) | 2 µg/mL (≈ 3.81 µM) | 8 µg/mL (≈ 15.2 µM)
4 | CN[C@@H]1[C@@H](O[C@H]2O[C@H](CO)[C@@H](N)C[C@H]2O)O[C@H]2C[C@@H](N)[C@@H](O[C@@H]3[C@@H](N)C[C@@H](N)C[C@@H]3O)O[C@@H]2[C@@H]1O [Compound N5, 6,3″-dideoxy-5-epiapramycin] | 2 µg/mL (≈ 3.94 µM) | 4 µg/mL (≈ 7.88 µM) | 8 µg/mL (≈ 15.8 µM) | 2 µg/mL (≈ 3.94 µM) | 1 µg/mL (≈ 1.97 µM) | 8 µg/mL (≈ 15.8 µM) | 4 µg/mL (≈ 7.88 µM) | 4 µg/mL (≈ 7.88 µM) | 4 µg/mL (≈ 7.88 µM) | 2 µg/mL (≈ 3.94 µM) | 8 µg/mL (≈ 15.8 µM) | 8 µg/mL (≈ 15.8 µM) | 2 µg/mL (≈ 3.94 µM) | 8 µg/mL (≈ 15.8 µM)
5 | CNC1C(OC2OC(CO)C(N)CC2O)OC2CC(N)C(OC3CCC(N)CC3N)OC2C1O (stereo not drawn) [Compound N7, 5,6,3″-trideoxyapramycin] | 1 µg/mL (≈ 2.03 µM) | 8 µg/mL (≈ 16.3 µM) | 8 µg/mL (≈ 16.3 µM) | 1 µg/mL (≈ 2.03 µM) | 1 µg/mL (≈ 2.03 µM) | 8 µg/mL (≈ 16.3 µM) | 4 µg/mL (≈ 8.14 µM) | 4 µg/mL (≈ 8.14 µM) | 4 µg/mL (≈ 8.14 µM) | 2 µg/mL (≈ 4.07 µM) | 8 µg/mL (≈ 16.3 µM) | 8 µg/mL (≈ 16.3 µM) | 2 µg/mL (≈ 4.07 µM) | 16 µg/mL (≈ 32.5 µM)
6 | CNC1C(OC2OC(CO)C(N)CC2O)OC2CC(N)C(OC3C(N)CC(N)C(O)C3N)OC2C1O (stereo not drawn) [Compound N9, 5-amino-5,3″-dideoxy-5-epiapramycin] | 1 µg/mL (≈ 1.91 µM) | 8 µg/mL (≈ 15.3 µM) | 8 µg/mL (≈ 15.3 µM) | 2 µg/mL (≈ 3.83 µM) | 1 µg/mL (≈ 1.91 µM) | 8 µg/mL (≈ 15.3 µM) | 4 µg/mL (≈ 7.65 µM) | 8 µg/mL (≈ 15.3 µM) | 4 µg/mL (≈ 7.65 µM) | 2 µg/mL (≈ 3.83 µM) | 8 µg/mL (≈ 15.3 µM) | 8 µg/mL (≈ 15.3 µM) | 2 µg/mL (≈ 3.83 µM) | 16 µg/mL (≈ 30.6 µM)
7 | CN[C@@H]1[C@@H](O[C@@H]2C[C@H](O)[C@H](N)[C@@H](CO)O2)O[C@H]2C[C@@H](N)[C@@H](O[C@H]3[C@@H](F)[C@@H](O)[C@H](N)C[C@@H]3N)O[C@@H]2[C@@H]1O [Compound O5, 5,2″-dideoxy-5,3″-diepi-5-fluoroapramycin] | 0.5 µg/mL (≈ 0.951 µM) | 4 µg/mL (≈ 7.61 µM) | 4 µg/mL (≈ 7.61 µM) | 1 µg/mL (≈ 1.9 µM) | 0.5 µg/mL (≈ 0.951 µM) | 4 µg/mL (≈ 7.61 µM) | 2 µg/mL (≈ 3.81 µM) | 2 µg/mL (≈ 3.81 µM) | 2 µg/mL (≈ 3.81 µM) | 1 µg/mL (≈ 1.9 µM) | 4 µg/mL (≈ 7.61 µM) | 4 µg/mL (≈ 7.61 µM) | 1 µg/mL (≈ 1.9 µM) | 8 µg/mL (≈ 15.2 µM)
8 | CN[C@@H]1[C@@H](O[C@H]2O[C@H](CO)[C@@H](N)[C@@H](O)[C@H]2O)O[C@H]2C[C@@H](N)[C@@H](O[C@H]3[C@@H](O)[C@@H](O)[C@H](N)C[C@@H]3N)O[C@@H]2[C@@H]1O [Compound P4, 5,3″-diepiapramycin] | 2 µg/mL (≈ 3.71 µM) | 4 µg/mL (≈ 7.41 µM) | 8 µg/mL (≈ 14.8 µM) | 2 µg/mL (≈ 3.71 µM) | 2 µg/mL (≈ 3.71 µM) | 8 µg/mL (≈ 14.8 µM) | 4 µg/mL (≈ 7.41 µM) | 8 µg/mL (≈ 14.8 µM) | 4 µg/mL (≈ 7.41 µM) | 2 µg/mL (≈ 3.71 µM) | 4 µg/mL (≈ 7.41 µM) | 8 µg/mL (≈ 14.8 µM) | 2 µg/mL (≈ 3.71 µM) | 16 µg/mL (≈ 29.7 µM)
9 | CNC1C(OC2OC(C)C(N)C(O)C2O)OC2CC(N)C(OC3C(N)CC(N)CC3O)OC2C1O (stereo not drawn) [Compound Q4, 6,6″-dideoxy-5-epiapramycin] | 1 µg/mL (≈ 1.97 µM) | 4 µg/mL (≈ 7.88 µM) | 8 µg/mL (≈ 15.8 µM) | 1 µg/mL (≈ 1.97 µM) | 0.5 µg/mL (≈ 0.985 µM) | 4 µg/mL (≈ 7.88 µM) | 4 µg/mL (≈ 7.88 µM) | 4 µg/mL (≈ 7.88 µM) | 4 µg/mL (≈ 7.88 µM) | 2 µg/mL (≈ 3.94 µM) | 8 µg/mL (≈ 15.8 µM) | 8 µg/mL (≈ 15.8 µM) | 1 µg/mL (≈ 1.97 µM) | 8 µg/mL (≈ 15.8 µM)

From patent US11135234B2, “Effective aminoglycoside antibiotic for multidrug-resistant bacteria” (MICROBIAL CHEMISTRY RESEARCH FOUNDATION, priority 2015, dated 2021)
